Data published in patent US20090068286A1, “METHOD OF TREATING CANCER BY ADMINISTRATION OF 5-SUBSTITUTED NUCLEOSIDES” (RESprotect, GmbH, priority 2007, published 2009).
Where “and” joins values, the source holds several entries; their conditions need not be identical. Equal values may be shown once. Read-outs that look alike come from different tables or passages of the source.

Test: Plasma concentrations of BVDU, BVU and GEM in patients of the dose finding study (HPLC)
Type: in vivo, human
Details: for concentration at 0 hr / concentration at 0 h / concentration at 0.5 hr / concentration at 1 hr / concentration at 1.5 hr / concentration at 2 hr / concentration at 3 hr / concentration at 4 hr / concentration at 4 h / concentration at 5 hr / concentration at 9 hr / concentration at 0.5 h / concentration at 1 h / concentration at 1.5 h / concentration at 2 h / concentration at 3 h / concentration at 5 h / concentration at 9 h: human, plasma, po; for concentration at 0 hr / concentration at 0 h / concentration at 0.5 hr / concentration at 1 hr / concentration at 1.5 hr / concentration at 2 hr / concentration at 3 hr / concentration at 4 hr / concentration at 4 h / concentration at 5 hr / concentration at 9 hr / concentration at 0.5 h / concentration at 1 h / concentration at 1.5 h / concentration at 2 h / concentration at 3 h / concentration at 5 h / concentration at 9 h / BVDU plasma concentration, patient: day 1, oral BVDU
Method: Dose finding study: 22 Patients with advanced pancreatic adenocarcinoma were eligible for treatment in this single arm study. The mean age was 60 years and 73% of patients were males. One patient without progressive disease was excluded from the study for withdrawal of consent after the first cycle. Of the 21 patients left, 15 were in stage IV and 6 in stage III. BVDU was administered in a combination with GEM. On day 1, on day 8 and on day 15 of each 28-day cycle, BVDU was given together with GEM. On days 2-4, on days 8-11, and on days 15-18 of a 28-day cycle, BVDU was given alone in the recovery phase.
The starting dose of BVDU was 4×125 mg/day (total dose of 6,000 mg per treatment cycle) together with a fixed dose of GEM (1,000 mg/M^2). Subsequent total doses of BVDU per cycle were 7,500 mg, 9,000 mg, 10,500 mg, and 12,000 mg again in four patients per cohort. Dosage levels were administered as follows: First dose level: The starting dose of BVDU was 4×125 mg daily given at approximately 08:00 a.m. (1×125 mg BVDU), 12:00 a.m. (1×125 mg BVDU), 04:00 p.m. (1×125 mg BVDU), and 08:00 p.m. (1×125 mg BVDU). These doses were administered on days 1 to 4, days 8 to 11 and days 15 to 18; Second dose level: 1×250 mg+3×125 mg daily; Third dose level. 2×250 mg+2×125 mg daily; Forth dose level: 3×250 mg+1×125 mg daily; and, Fifth dose level: 4×250 mg daily.
Approximately 1 hour after the 08:00 a.m. BVDU-administration on day 1, day 8 and day 15 of a cycle, the GEM infusion started and GEM was infused for 30 minutes.
Analysis of the concentrations of GEM and BVDU (BVDU) as well as analysis of the concentrations of BVU ((E)-5-(2-bromovinyl)uracil, degradation product of BVDU) in plasma samples: 0.5 ml of plasma spiked with about 0.5 μg of 4-Propyl-2-thiouracil (PTU) as internal standard was extracted with 2.5 ml of methanol-acetonitrile (v/v, 1:9) by vigorous mixing for about 1 min. After centrifugation the supernatant was transferred to a beaker and evaporated to dryness at 50° C. under a gentle stream of nitrogen. The residue was dissolved in 1 ml of the solution used as mobile phase by 10 min treatment in an ultrasonic bath. After centrifugation the clear supernatant was used for HPLC-analysis. The concentrations of GEM and BVDU were calculated using a calibration curve with the respective standard substances. The concentrations of BVU were calculated using the calibration curve of BVDU and the determined response factor. Limits of detection: BVDU 20 ng/ml plasma; GEM 30 ng/ml plasma. Limits of quantification: BVDU 60 ng/ml plasma; GEM 100 ng/ml plasma.
Pharmacokinetic Results BVDU: All measurements were performed within 9 hours. Therefore, only the first three intakes of BVDU-tablets were relevant in this context, and as consequence, in dose groups four and five the intake of tablets was identical. When the dose was doubled from 125 mg to 250 mg, the mean maximum BVDU concentration in plasma increased fivefold from 290 (±152) ng/ml to 1549 (±1058) ng/ml (FIG. 10).

[1] = both sexes, dose level 6000 mg, read-out: BVDU plasma concentration, Mean
[2] = both sexes, dose level 6000 mg, read-out: BVDU plasma concentration, Median
[3] = both sexes, dose level 7500 mg, read-out: BVDU plasma concentration, Mean
[4] = both sexes, dose level 10500 mg, read-out: BVDU plasma concentration, Mean
[5] = both sexes, dose level 10500 mg, read-out: BVDU plasma concentration, Median
[6] = both sexes, dose level 12000 mg, read-out: BVDU plasma concentration, Mean
[7] = both sexes, dose level 12000 mg, read-out: BVDU plasma concentration, Median
[8] = dose level 7500 mg, read-out: BVDU plasma concentration, Median
[9] = dose level 9000 mg, read-out: BVDU plasma concentration, Mean
[10] = dose level 9000 mg, read-out: BVDU plasma concentration, Median

O=c1[nH]c(=O)n([C@H]2C[C@H](O)[C@@H](CO)O2)cc1/C=C/Br [BVDU, (E)-5-(2-bromovinyl)-2′-deoxyuridine]
Mean maximum BVDU concentration in plasma (BVDU dose 125 mg): 290 (±152) ng/ml | Mean maximum BVDU concentration in plasma (BVDU dose 250 mg): 1549 (±1058) ng/ml | concentration at 0 hr [1]: 0 ng/mL | concentration at 0 hr [2]: 0 ng/mL | concentration at 0 h (both sexes, dose level 6000 mg, read-out: BVDU plasma concentration, patient): 0 ng/mL | concentration at 0.5 hr [1]: 213 ng/mL | concentration at 0.5 hr [2]: 213 ng/mL | concentration at 1 hr [1]: 177 ng/mL | concentration at 1 hr [2]: 109 ng/mL | concentration at 1.5 hr (both sexes, dose level 6000 mg, 1.5 hr, read-out: BVDU plasma concentration, Mean): 250 ng/mL | concentration at 1.5 hr (both sexes, dose level 6000 mg, 1.5 hr, read-out: BVDU plasma concentration, Median): 226 ng/mL | concentration at 2 hr [1]: 231 ng/mL | concentration at 2 hr [2]: 207 ng/mL | concentration at 3 hr [1]: 175 ng/mL | concentration at 3 hr [2]: 133 ng/mL | concentration at 4 hr (both sexes, dose level 6000 mg, 4.0 hr, read-out: BVDU plasma concentration, Mean): 113 ng/mL | concentration at 4 hr (both sexes, dose level 6000 mg, 4.0 hr, read-out: BVDU plasma concentration, Median): 122 ng/mL | concentration at 4 h (both sexes, dose level 6000 mg, 4.0 hr, read-out: BVDU plasma concentration, patient): 126 ng/mL | concentration at 5 hr [1]: 300 ng/mL | concentration at 5 hr [2]: 334 ng/mL | concentration at 9 hr [1]: 391 ng/mL | concentration at 9 hr [2]: 403 ng/mL | concentration at 0 hr [3]: 0 ng/mL | concentration at 0 hr (both sexes, dose level 7500 mg, read-out: BVDU plasma concentration, patient): 0 ng/mL | concentration at 0.5 hr [3]: 1600 ng/mL | concentration at 1 hr [3]: 872 ng/mL | concentration at 1.5 hr (both sexes, dose level 7500 mg, 1.5 hr, read-out: BVDU plasma concentration, Mean): 555 ng/mL | concentration at 2 hr [3]: 454 ng/mL | concentration at 3 hr [3]: 302 ng/mL | concentration at 4 hr (both sexes, dose level 7500 mg, 4.0 hr, read-out: BVDU plasma concentration, Mean): 243 ng/mL | concentration at 9 hr [3]: 952 ng/mL | concentration at 0 h [4]: 0 ng/mL | concentration at 0 h [5]: 0 ng/mL | concentration at 0 h (both sexes, dose level 10500 mg, read-out: BVDU plasma concentration, patient): 0 ng/mL | concentration at 0.5 h [4]: 1110 ng/mL | concentration at 0.5 h [5]: 1150 ng/mL | concentration at 1 h [4]: 1010 ng/mL | concentration at 1 h [5]: 1010 ng/mL | concentration at 1.5 h (both sexes, dose level 10500 mg, 1.5 hr, read-out: BVDU plasma concentration, Mean): 636 ng/mL | concentration at 1.5 h (both sexes, dose level 10500 mg, 1.5 hr, read-out: BVDU plasma concentration, Median): 566 ng/mL | concentration at 2 h [4]: 697 ng/mL | concentration at 2 h [5]: 669 ng/mL | concentration at 3 h [4]: 453 ng/mL | concentration at 3 h [5]: 279 ng/mL | concentration at 4 h (both sexes, dose level 10500 mg, 4.0 hr, read-out: BVDU plasma concentration, Mean): 206 ng/mL | concentration at 4 h (both sexes, dose level 10500 mg, 4.0 hr, read-out: BVDU plasma concentration, Median): 212 ng/mL | concentration at 5 h [4]: 400 ng/mL | concentration at 5 h [5]: 410 ng/mL | concentration at 9 h [4]: 2070 ng/mL | concentration at 9 h [5]: 1390 ng/mL | concentration at 0 h [6]: 0 ng/mL | concentration at 0 h [7]: 0 ng/mL | concentration at 0 h (both sexes, dose level 12000 mg, read-out: BVDU plasma concentration, patient): 0 ng/mL | concentration at 0.5 h [6]: 1490 ng/mL | concentration at 0.5 h [7]: 672 ng/mL | concentration at 1 h [6]: 1160 ng/mL | concentration at 1 h [7]: 1020 ng/mL | concentration at 1.5 h (both sexes, dose level 12000 mg, 1.5 hr, read-out: BVDU plasma concentration, Mean): 1050 ng/mL | concentration at 1.5 h (both sexes, dose level 12000 mg, 1.5 hr, read-out: BVDU plasma concentration, Median): 844 ng/mL | concentration at 1.5 h (both sexes, dose level 12000 mg, 1.5 hr, read-out: BVDU plasma concentration, patient): 844 ng/mL | concentration at 2 h [6]: 904 ng/mL | concentration at 2 h [7]: 561 ng/mL | concentration at 3 h [6]: 738 ng/mL | concentration at 3 h [7]: 407 ng/mL | concentration at 4 h (both sexes, dose level 12000 mg, 4.0 hr, read-out: BVDU plasma concentration, Mean): 543 ng/mL | concentration at 4 h (both sexes, dose level 12000 mg, 4.0 hr, read-out: BVDU plasma concentration, Median): 440 ng/mL | concentration at 5 h [6]: 2080 ng/mL | concentration at 5 h [7]: 1070 ng/mL | concentration at 9 h [6]: 2340 ng/mL | concentration at 9 h [7]: 1780 ng/mL | Increase of mean maximum BVDU concentration in plasma (dose doubled from 125 mg to 250 mg): fivefold | BVDU plasma concentration, patient (dose level 6000 mg, 4.0 hr): 122 ng/mL and 90 ng/mL | BVDU plasma concentration, patient (dose level 12000 mg, 1.5 hr): 1524 ng/mL and 792 ng/mL | concentration at 0 h [8]: 0 ng/mL | concentration at 0.5 h [8]: 1130 ng/mL | concentration at 1 h [8]: 484 ng/mL | concentration at 1.5 h (dose level 7500 mg, 1.5 hr, read-out: BVDU plasma concentration, Median): 644 ng/mL | concentration at 2 h [8]: 403 ng/mL | concentration at 3 h [8]: 304 ng/mL | concentration at 4 h (dose level 7500 mg, 4.0 hr, read-out: BVDU plasma concentration, Median): 242 ng/mL | concentration at 5 h (dose level 7500 mg, read-out: BVDU plasma concentration, Mean): 641 ng/mL | concentration at 5 h [8]: 776 ng/mL | concentration at 9 h [8]: 898 ng/mL | concentration at 0 h [9]: 0 ng/mL | concentration at 0 h [10]: 0 ng/mL | concentration at 0 h (dose level 9000 mg, read-out: BVDU plasma concentration, patient): 0 ng/mL | concentration at 0.5 h [9]: 942 ng/mL | concentration at 0.5 h [10]: 979 ng/mL | concentration at 1 h [9]: 784 ng/mL | concentration at 1 h [10]: 781 ng/mL | concentration at 1.5 h (dose level 9000 mg, 1.5 hr, read-out: BVDU plasma concentration, Mean): 697 ng/mL | concentration at 1.5 h (dose level 9000 mg, 1.5 hr, read-out: BVDU plasma concentration, Median): 530 ng/mL | concentration at 2 h [9]: 701 ng/mL | concentration at 2 h [10]: 705 ng/mL | concentration at 3 h [9]: 464 ng/mL | concentration at 3 h [10]: 441 ng/mL | concentration at 4 h (dose level 9000 mg, 4.0 hr, read-out: BVDU plasma concentration, Mean): 420 ng/mL | concentration at 4 h (dose level 9000 mg, 4.0 hr, read-out: BVDU plasma concentration, Median): 378 ng/mL | concentration at 5 h [9]: 1300 ng/mL | concentration at 5 h [10]: 1020 ng/mL | concentration at 9 h [9]: 1510 ng/mL | concentration at 9 h [10]: 1630 ng/mL
